This is an account of results in paper PMC8597422, “Activity-based protein profiling reveals deubiquitinase and aldehyde dehydrogenase targets of a cyanopyrrolidine probe” (RSC Medicinal Chemistry, 2021).

For orientation: IC50 means the concentration that gives 50% inhibition. Usually inhibition stands for the change of the read-out against control, counted positive when it falls.

Test [1] deals with T1, Ubiquitin carboxy-terminal hydrolase L1 (UCHL1) (Homo sapiens, UniProt P09936).
T1 construct: recombinant UCHL1
T1 sequence (P09936 1-220): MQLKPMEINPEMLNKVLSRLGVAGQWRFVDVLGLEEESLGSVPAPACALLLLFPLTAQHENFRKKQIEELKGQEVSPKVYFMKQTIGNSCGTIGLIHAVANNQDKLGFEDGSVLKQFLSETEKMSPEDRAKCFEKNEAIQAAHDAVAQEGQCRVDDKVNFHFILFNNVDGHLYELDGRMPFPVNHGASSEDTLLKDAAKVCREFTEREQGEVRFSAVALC
As to the kind of experiment: fluorescence polarization assay with Ub-Lys-TAMRA, […] min preincubation; covalent adduct by LC-ESI-MS; cellular HTRF. The test is classed as biochemical. (In general: Fluorescence polarisation rises when a labelled molecule tumbles more slowly, as on binding a larger partner.)

Test [2] addresses T2, ALDH2 (Homo sapiens, UniProt P05091).
T2 sequence (P05091 18-517): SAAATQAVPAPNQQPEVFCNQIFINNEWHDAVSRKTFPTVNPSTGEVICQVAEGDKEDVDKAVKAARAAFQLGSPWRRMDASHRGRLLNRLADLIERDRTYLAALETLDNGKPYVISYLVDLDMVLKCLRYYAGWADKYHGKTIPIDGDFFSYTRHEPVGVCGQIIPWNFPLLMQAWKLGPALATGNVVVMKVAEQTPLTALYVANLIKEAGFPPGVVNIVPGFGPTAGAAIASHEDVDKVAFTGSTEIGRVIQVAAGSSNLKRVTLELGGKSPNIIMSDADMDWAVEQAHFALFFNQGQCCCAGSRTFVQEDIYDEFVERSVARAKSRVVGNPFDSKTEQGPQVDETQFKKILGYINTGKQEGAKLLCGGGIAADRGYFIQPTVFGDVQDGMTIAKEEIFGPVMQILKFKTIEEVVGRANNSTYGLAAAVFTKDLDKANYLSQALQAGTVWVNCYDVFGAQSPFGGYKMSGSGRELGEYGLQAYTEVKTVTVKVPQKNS
As to the kind of experiment: competitive ABPP against MT16-205 in HEK293 cells (LFQ proteomics). The test is classed as cell-based.

A further test deals with T3, USP30 (Homo sapiens, UniProt Q70CQ3).
T3 sequence (Q70CQ3 1-517): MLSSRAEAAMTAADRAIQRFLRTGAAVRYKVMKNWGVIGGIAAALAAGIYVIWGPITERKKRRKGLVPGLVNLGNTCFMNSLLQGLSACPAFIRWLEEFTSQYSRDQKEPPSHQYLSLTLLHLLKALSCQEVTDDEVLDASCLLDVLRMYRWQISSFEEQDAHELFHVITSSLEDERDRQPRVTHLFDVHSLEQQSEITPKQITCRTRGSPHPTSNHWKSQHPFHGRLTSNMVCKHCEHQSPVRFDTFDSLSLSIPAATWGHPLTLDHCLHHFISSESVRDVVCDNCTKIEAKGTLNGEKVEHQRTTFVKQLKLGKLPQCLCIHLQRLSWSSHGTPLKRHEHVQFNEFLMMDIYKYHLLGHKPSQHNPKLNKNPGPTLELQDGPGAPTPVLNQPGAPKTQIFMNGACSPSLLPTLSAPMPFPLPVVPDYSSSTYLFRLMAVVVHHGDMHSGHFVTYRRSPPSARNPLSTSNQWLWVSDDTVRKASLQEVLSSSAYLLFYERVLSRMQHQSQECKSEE
Nature of the test: DUB selectivity panel at […] (FP / FI in vitro assays). The test is classed as biochemical.

A further test addresses ALDH9A1 (Homo sapiens, UniProt P49189). As to the kind of experiment: ABPP in HEK293 cells: streptavidin pulldown immunoblot and LFQ chemical proteomics. The test is classed as cell-based. (In general: In western blotting, separated proteins are transferred to a membrane and probed.)
Test [3] concerns the target T2, ALDH2. As to the kind of experiment: ABPP in HEK293 cells, LFQ chemical proteomics, competed by MT16-001. The test is classed as cell-based.
For test [4], the target named is T1, Ubiquitin carboxy-terminal hydrolase L1 (UCHL1). As to the kind of experiment: fluorescence polarization assay with Ub-Lys-TAMRA, […] min preincubation; covalent adduct by LC-ESI-MS; ABPP pulldown. The test is classed as biochemical.

Sequence of ALDH9A1 (P49189 whole entry): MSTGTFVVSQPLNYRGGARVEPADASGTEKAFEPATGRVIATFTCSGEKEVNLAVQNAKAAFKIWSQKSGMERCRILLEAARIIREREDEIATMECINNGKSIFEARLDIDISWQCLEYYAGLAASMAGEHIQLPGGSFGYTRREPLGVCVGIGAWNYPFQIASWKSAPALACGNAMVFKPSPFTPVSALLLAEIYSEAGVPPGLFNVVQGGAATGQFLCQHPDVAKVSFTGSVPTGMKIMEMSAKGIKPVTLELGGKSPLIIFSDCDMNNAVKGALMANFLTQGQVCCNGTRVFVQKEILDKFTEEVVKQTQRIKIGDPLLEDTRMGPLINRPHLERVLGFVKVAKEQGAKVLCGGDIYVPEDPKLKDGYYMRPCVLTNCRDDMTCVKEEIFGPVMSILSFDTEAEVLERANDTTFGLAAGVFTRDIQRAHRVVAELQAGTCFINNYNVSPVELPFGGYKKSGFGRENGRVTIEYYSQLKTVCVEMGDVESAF

On to `N#CN1CC[C@H](C(=O)Nc2ncc(-c3ccccc3)s2)C1` [MT16-001], for which, in test [1], the IC50 was determined as 580 ± 25 nM. In addition, on ALDH2 [2], the “competitive ABPP against MT16-205 in HEK293 cells (LFQ proteomics)” value is “Four targets, ALDH2, ALDH9A1, GATD3A and UCHL1, responded to parent compound MT16-001 in a concentration dependent manner”.

Compound `N#CN1CC[C@H](C(=O)Nc2nc(-c3ccccc3)cs2)C1` [MT16-009] returned an inhibition at 1 µM at USP30 of 50%.

With `C#Cc1ccc(-c2cnc(NC(=O)[C@H]3CCN(C#N)C3)s2)cc1` [MT16-205], the “ABPP in HEK293 cells: streptavidin pulldown immunoblot and LFQ chemical proteomi” value on ALDH9A1 was “also ALDH9A1, which was one of the off-targets of MT16-205 in HEK293 cells”. Also, the “ABPP in HEK293 cells, LFQ chemical proteomics, competed by MT16-001” value at ALDH2 [3] was “ALDH2, ALDH9A1, and GATD3A were confirmed as the genuine targets of MT16-001, MT16-205 and MT16-009”. Also, the IC50 in test [4] was found to be 600 ± 78 nM.
